Laboratory results reported in patent US4281121A, “1,3,4-Thiadiazole-2-carboxylic acid derivatives, process for making the same and fungicidal and nematocidal compositions containing same” (Schering Aktiengesellschaft, priority 1978, dated 1981).
Where two headings read alike, the source gives them in different places.

Assays:
[1] = test system: Penicillium digitatum; assay: Inhibition of fungus in a nutrient solution: Penicillium digitatum; type: cell-based; conditions: 6 days at 21-23° C.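 Note: 0 means no fungus growth and higher grades mean more surface covered.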
[2] = test system: Alternaria solani; assay: Inhibition of fungus in a nutrient solution: Alternaria solani; type: cell-based; conditions: 6 days at 21-23° C.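 Note: 0 means no fungus growth and higher grades mean more surface covered.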
[3] = test system: Botrytis cinerea; assay: Inhibition of fungus in a nutrient solution: Botrytis cinerea; type: cell-based; conditions: 6 days at 21-23° C.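 Note: 0 means no fungus growth and higher grades mean more surface covered.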
[4] = test system: Fusarium avenaceum; assay: Inhibition of fungus in a nutrient solution: Fusarium avenaceum; type: cell-based; conditions: 6 days at 21-23° C.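 Note: 0 means no fungus growth and higher grades mean more surface covered.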
Protocol: Inhibition of fungus in a nutrient solution
20 ml of a nutrient solution of grape juice and water (1:1) were filled into a glass vial of a 100 ml capacity and were mixed with the pulverulent active agents which appear from the subsequent table. Thereafter, the solution was inoculated with conidia (spores) of the test fungi.
After an incubation time of 6 days at 21° to 23° C. the fungus development on the surface of the nutrient solution was evaluated. The test fungi used were the following: Penicillium digitatum, Botrytis cinerea, Alternaria solani, Fusarium avenaceum.
The evaluation was carried out at a scale from 0 to 5 as follows: […]

[5] = test system: Tilletia caries; assay: Treatment of oat seeds infested with Tilletia caries (spore germination); type: in vivo
[6] = test system: Helminthosporium gramineum; assay: Seed treatment in open field tests for infestation by Helminthosporium gramineum (barley); type: in vivo; conditions: summer barley, about 3 months
Protocol: Seed treatment in open field tests for infestation by Helminthosporium gramineum
The active agents were used in the form of pulverulent compositions. After about 8 months in case of winter barley and after about 3 months in case of summer barley the infested plants were counted and the activity was calculated by the formula [formula]

[7] = test system: Septoria nodorum; assay: Treatment of oat seeds against Septoria nodorum; type: in vivo; conditions: 50 g active agent/100 kg seeds; 4 weeks
Protocol: Effects of the treatment of oat seeds against Septoria nodorum
They were then seeded on a moist substrate for germination. As a control untreated seeds were likewise seeded. At about 6° C. the seed was incubated in an air-conditioned chamber until after 4 weeks the proportion of diseased seeds could be determined and the activity of the fungicidal compounds was calculated on the basis of the following formula: [formula]
The active agents were applied in the form of 20% concentration pulverulent compositions.

[8] = test system: Helminthosporium gram; conditions: about 5 weeks
Protocol: Treatment of barley seeds infested with Helminthosporium gram
After emergence, the plants were subjected to illumination for 12 hours per day. After about 5 weeks the infested plants were counted and the total number of plants for each test were also counted. The active agents tested were used as pulverulent compositions.

[9] = test system: Piricularia oryzae; type: in vivo; conditions: 5 days
[10] = test system: Pythium ultimum; assay: Threshold concentration test for use of the compounds against Pythium ultimum (infested soil, garden peas); type: in vivo; set-up: key to root evaluation (1-4): 4: white roots without fungous necrosis; 3: white roots, minor fungous necrosis; 2: brown roots, already more pronounced fungous necrosis; 1: heavy fungous necrosis, roots rotted; conditions: for root evaluation (1-4): 3 weeks; for number of sound peas: 20 grains per dish, 3 weeks at 20-24° C.
Procedure, shortened: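 Pulverulent agents at 20% concentration mixed evenly into soil heavily infested with Pythium ultimum, then garden peas ('Wunder von Kelvedon', 20 per dish) sown at once. After three weeks at 20–24 °C in a hothouse, sound peas counted and roots scored on a 1–4 scale.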

[11] = test system: Fusarium avenaceum; assay: Threshold concentration test in case of Fusarium avenaceum (infested soil, garden peas); type: in vivo; conditions: for number of sound peas: 20 grains per dish, 18 days at 20-24° C.; for root evaluation (1-4): 18 days
Procedure, shortened: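 Soil heavily infested with Fusarium avenaceum was mixed uniformly with a 20% powder formulation of active agent, then sown immediately with 20 garden pea seeds ('Wunder von Kelvedon') per dish. After 18 days in a greenhouse at 20° to 24° C., sound plants were counted and roots scored on a 1–4 scale.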

[12] = test system: Fusarium nivale; assay: Treatment of rye seeds against Fusarium nivale; type: in vivo; conditions: 100 g/100 kg; about 4 weeks
Protocol: Treatment of rye seeds against Fusarium nivale
Rye seeds with a natural infestation by Fusarium nivale were seeded in earth filled pots and left for germination at about 6° C. Part of the seeds was treated before seeding with the active agents as appears from the subsequent table and part was untreated. After emergence of the seedlings the plants were illuminated with artificial light for 12 hours each day. After about 4 weeks the degree of infestation was determined in percentages. The fungicidal activity was calculated on the basis of the following formula: [formula]
The active agents were used in the form of 20% concentration compositions.

[13] = test system: Plasmopara viticola; assay: Prophylactic leaf treatment of grapevines in the hothouse against Plasmopara viticola; type: in vivo
Procedure, shortened: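 Grapevines (5–8 leaves) sprayed to runoff with compound as 20% spray powder, then after drying inoculated on leaf undersides with sporangial suspension (~20,000/ml). Incubated at 22–24 °C, saturated humidity, 3–4 days normal humidity (30–70%), then one day saturated; activity from mean % infested leaf area per treatment.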

[14] = test system: Tilletia caries; assay: Seed treatment in open field tests regarding infestation by Tilletia caries (oats); type: in vivo; conditions: winter oats; 100 g active agent/100 kg; about 9 months
[15] = 25 g active agent/100 kg barley
[16] = 50 g active agent/100 kg barley
[17] = 100 g active agent/100 kg barley
[18] = concentration of active agent 0.1 (percentages)
[19] = concentration of active agent 0.025 (unit not given)

Row | Structure (SMILES) | fungus development on the surface of the nutrient solution (0-5) ([1]; 0.002%) | fungus development on the surface of the nutrient solution (0-5) ([1]; 0.004%) | fungus development on the surface of the nutrient solution (0-5) ([2]; 0.002%) | fungus development on the surface of the nutrient solution (0-5) ([2]; 0.004%) | fungus development on the surface of the nutrient solution (0-5) ([3]; 0.002%) | fungus development on the surface of the nutrient solution (0-5) ([3]; 0.004%) | fungus development on the surface of the nutrient solution (0-5) ([4]; 0.002%) | fungus development on the surface of the nutrient solution (0-5) ([4]; 0.004%) | % activity ([5]; 10 g active agent per 100 kg) [%] | % activity ([5]; 20 g active agent per 100 kg) [%] | % activity ([5]; 50 g active agent per 100 kg) [%] | % activity [6, 17] [%] | % activity ([8]; 50 g active agent per 100 kg) [%] | % activity [9, 18] [%] | root evaluation (1-4) ([10]; 20 mg/l soil) | number of sound peas ([10]; 20 mg/l soil) | root evaluation (1-4) ([10]; 40 mg/l soil) | number of sound peas ([10]; 40 mg/l soil) | root evaluation (1-4) ([10]; 80 mg/l soil) | number of sound peas ([10]; 80 mg/l soil) | also measured
1 | COC(=O)c1nnc(S(C)(=O)=O)s1 [5-methylsulfonyl-1,3,4-thiadiazole-2-carboxylic acid-methylester] | 1 | 0 | 1 | 0 | 1 | 0 | 0 | 0 | – | – | – | – | – | – | – | – | – | – | – | – | –
2 | CCCNC(=O)c1nnc(S(=O)(=O)CC)s1 [5-ethylsulfonyl-1,3,4-thiadiazole-2-carboxylic acid-propylamide] | – | – | – | – | – | – | – | – | 100 | 100 | 100 | 100 | 92 | – | – | – | – | – | – | – | % activity [6, 15]: 95%; % activity [6, 16]: 99.3%; % activity [7]: 81%
3 | CCCCNC(=O)c1nnc(S(=O)(=O)CC)s1 [5-ethylsulfonyl-1,3,4-thiadiazole-2-carboxylic acid-butylamide] | 1 | 0 | 1 | 0 | 2 (5 to 10% of the surface covered by the fungus turf) | 0 | 1 | 0 | 100 | 100 | 100 | 100 | – | 97 | 1 | 8 | 4 | 16 | 4 | 20 | –
4 | CCS(=O)(=O)c1nnc(C#N)s1 [5-ethylsulfonyl-1,3,4-thiadiazole-2-carbonitrile] | 0 | 0 | 0 | 0 | 1 | 0 | 0 | 0 | – | – | – | – | – | – | 2 | 19 | 4 | 20 | 4 | 20 | number of sound peas ([11]; 25 mg/l soil): 18; root evaluation (1-4) ([11]; 25 mg/l soil): 4; number of sound peas ([11]; 50 mg/l soil): 20; root evaluation (1-4) ([11]; 50 mg/l soil): 4; number of sound peas ([11]; 100 mg/l soil): 20; root evaluation (1-4) ([11]; 100 mg/l soil): 4; % activity [12]: 92%
5 | CCS(=O)(=O)c1nnc(C(=O)NCCOC)s1 [5-ethylsulfonyl-1,3,4-thiadiazole-2-carboxylic acid-(2-methoxyethyl)-amide] | – | – | – | – | – | – | – | – | 100 | 100 | 100 | 99.8 | 100 | 90 | 1 | 13 | 4 | 16 | 4 | 16 | % activity [6, 15]: 92%; % activity [6, 16]: 98%; % activity [7]: 86%; % activity ([8]; 10 g active agent per 100 kg): 100%; % activity ([8]; 20 g active agent per 100 kg): 99%
6 | CCS(=O)(=O)c1nnc(C(=O)NCCCOC)s1 [5-ethylsulfonyl-1,3,4-thiadiazole-2-carboxylic acid-(3-methoxypropyl)-amide] | – | – | – | – | – | – | – | – | 100 | 100 | 100 | 100 | 100 | 97 | 1 | 11 | 4 | 18 | 4 | 17 | % activity [6, 15]: 94%; % activity [6, 16]: 96%; % activity [7]: 86%; % activity ([8]; 10 g active agent per 100 kg): 99%; % activity ([8]; 20 g active agent per 100 kg): 99%; % activity [13, 19]: 90%
7 | CS(=O)(=O)c1nnc(C(=O)NCC2CCCCC2)s1 [5-methylsulfonyl-1,3,4-thiadiazole-2-carboxylic acid cyclohexylmethylamide] | – | – | – | – | – | – | – | – | 99 | 100 | – | – | – | 80 | – | – | – | – | – | – | % activity [14]: 100%; % activity ([9]; concentration of active agent 0.02 (percentages)): 60%; % activity ([5]; 5 g active agent per 100 kg): 86%; % activity ([13]; concentration of active agent 0.001 (unit not given)): 76%; % activity ([13]; concentration of active agent 0.005 (unit not given)): 88%; % activity [13, 19]: 97%
8 | CCS(=O)(=O)c1nnc(C(=O)NC(C)C)s1 [5-ethylsulfonyl-1,3,4-thiadiazole-2-carboxylic acid-isopropylamide] | – | – | – | – | – | – | – | – | 100 | 100 | 100 | 99.8 | 100 | 99 | 3 | 16 | 3 | 15 | 4 | 16 | % activity [6, 15]: 96%; % activity [6, 16]: 100%; % activity [7]: 86%; % activity ([8]; 10 g active agent per 100 kg): 95%; % activity ([8]; 20 g active agent per 100 kg): 98%; % activity [13, 19]: 92%
9 | CCS(=O)(=O)c1nnc(C(N)=O)s1 [5-ethylsulfonyl-1,3,4-thiadiazole-2-carboxamide] | – | – | – | – | – | – | – | – | 93 | 100 | – | – | 100 | – | 2 | 18 | 4 | 18 | 4 | 20 | % activity ([5]; 5 g active agent per 100 kg): 87%; % activity ([8]; 10 g active agent per 100 kg): 97%; % activity ([8]; 20 g active agent per 100 kg): 100%; % activity [12]: 99.2%
10 | CCOC(=O)c1nnc(S(=O)(=O)CC)s1 [5-ethylsulfonyl-1,3,4-thiadiazole-2-carboxylic acid-ethylester] | 1 | 0 | 0 | 0 | 2 (5 to 10% of the surface covered by the fungus turf) | 0 | 1 | 0 | – | – | – | – | – | 95 | – | – | – | – | – | – | –
